Experimental data: patent US11528912B2, “Bacillus methylotrophicus strain DR-08 producing natural volatile compound and having antibacterial activity, and use thereof” (GLOBAL AGRO CO., LTD., priority 2016, dated 2022)
Structures can show the parent of a compound that is named as a salt.

How the values were obtained:
Type in all cases: cell-based
[1] = test system: Burkholderia glumae; experiment: microbe, parasite or virus in culture; conditions: read-out: Minimum inhibitory concentration (MIC)
[2] = test system: Xanthomonas axonopodis pv. citri; experiment: 96-well microplate bioassay, MIC; conditions: read-out: Minimum inhibitory concentration (MIC)
[3] = test system: Pectobacterium chrysanthemi; experiment: 96-well microplate bioassay, MIC; set-up: key: —: Not active
Experimental: (§1) The butanol extract produced as in Example 3 was dissolved in methanol at a level of 5 mg/mL, and antibacterial activity thereof against various plant pathogens was examined.
(§2) Then, dilution with sterilized water was performed to reach 10^6 CFU/ml, and inoculation into a 96-well plate was performed.
(§3) For the butanol extract of the Bacillus sp. strain DR-08, the butanol extract of the strain DR-08 and streptomycin sulfate as a control agent were made to have the highest concentrations of 500·μg/mL and 100 μg/mL, respectively, in a TSB medium into which 14 various phytopathogenic bacteria including Gram-negative and Gram-positive bacteria had been inoculated. Then, starting from the next well, the concentrations were decreased by 2-fold using an octapipette. The butanol extract of the strain DR-08 was used by being sequentially diluted by 2-fold from 500 μg/mL at the highest down to 15.6 μg/mL, and streptomycin sulfate as a control agent was used by being sequentially diluted by 2-fold from 100 μg/mL at the highest down to 3.1 μg/mL. Standing culture was performed at optimal growth conditions, and then growth of the phytopathogenic bacteria was measured at an absorbance of 595 nm with a microplate reader. Then, a minimum growth inhibitory concentration (MIC) value was determined.

[4] = test system: Acidovorax avenae subsp. cattleyae; experiment: 96-well microplate bioassay, MIC; set-up: key: —: Not active
Experimental: as §1, §2, §3

[5] = test system: Pseudomonas syringae pv. lachrymans; experiment: 96-well microplate bioassay, MIC; conditions: read-out: Minimum inhibitory concentration (MIC)
Experimental: as §1, §2, §3

[6] = test system: Pseudomonas syringae pv. actinidiae; experiment: 96-well microplate bioassay, MIC; conditions: read-out: Minimum inhibitory concentration (MIC)
Experimental: as §1, §2, §3

[7] = test system: Pectobacterium carotovora subsp. carotovora; experiment: 96-well microplate bioassay, MIC; conditions: read-out: Minimum inhibitory concentration (MIC)
Experimental: as §1, §2, §3

[8] = test system: Agrobacterium tumefaciens; experiment: 96-well microplate bioassay, MIC; conditions: read-out: Minimum inhibitory concentration (MIC)
Experimental: as §1, §2, §3

[9] = test system: Acidovorax konjaci; experiment: 96-well microplate bioassay, MIC; conditions: Paracidovorax konjaci; read-out: Minimum inhibitory concentration (MIC)
Experimental: as §1, §2, §3

[10] = test system: Xanthomonas arboricola pv. pruni; experiment: 96-well microplate bioassay, MIC; conditions: read-out: Minimum inhibitory concentration (MIC)
Experimental: as §1, §2, §3

[11] = test system: Xanthomonas euvesicatoria; experiment: microbe, parasite or virus in culture; conditions: read-out: Minimum inhibitory concentration (MIC)
[12] = test system: Xanthomonas oryzae pv. oryzae; experiment: microbe, parasite or virus in culture; conditions: read-out: Minimum inhibitory concentration (MIC)
[13] = test system: Ralstonia solanacearum; experiment: microbe, parasite or virus in culture; conditions: read-out: Minimum inhibitory concentration (MIC)
[14] = test system: Xanthomonas arboricola pv. pruni; experiment: microbe, parasite or virus in culture; conditions: 48 h, read-out: Clear zone
[15] = test system: Clavibacter michiganensis subsp. michiganensis; experiment: 96-well microplate bioassay, MIC; conditions: read-out: Minimum inhibitory concentration (MIC)

Question: For `[H]/N=C(/N)N[C@H]1[C@H](O)[C@@H](O)[C@H](O[C@@H]2O[C@@H](C)[C@](O)(C=O)[C@H]2O[C@@H]2O[C@@H](CO)[C@H](O)[C@@H](O)[C@@H]2NC)[C@@H](N/C(N)=N\[H])[C@@H]1O` [Streptomycin sulfate, streptomycin sulfate], which MIC [1] is on record?
Answer: The MIC was 12.5 µg/mL.

Question: And the MIC [2]?
Answer: Its MIC is 6.25 µg/mL.

Question: And the “Minimum inhibitory concentration (MIC)” value [3]?
Answer: The value was “—”.

Question: And the “Minimum inhibitory concentration (MIC)” value [4]?
Answer: The value was “—”.

Question: What about the MIC [5] of the same compound?
Answer: The MIC was 50 µg/mL.

Question: And the MIC [6]?
Answer: Its MIC is 12.5 µg/mL.

Question: What about the MIC [7] of the same compound?
Answer: Its MIC is 12.5 µg/mL.

Question: What about the MIC [8] of the same compound?
Answer: The MIC was 100 µg/mL.

Question: What about the MIC [9] of the same compound?
Answer: The MIC was 6.25 µg/mL.

Question: What about the MIC [10] of the same compound?
Answer: Its MIC is 12.5 µg/mL.

Question: What about the MIC [11] of the same compound?
Answer: Its MIC is 12.5 µg/mL.

Question: And the MIC [12]?
Answer: The MIC was 3.12 µg/mL.

Question: What about the MIC [13] of the same compound?
Answer: Its MIC is 3.12 µg/mL.

Question: And the zone of inhibition at 200 ppm [14]?
Answer: Its zone of inhibition at 200 ppm is 4 mm.

Question: What about the MIC [15] of the same compound?
Answer: Its MIC is 25 µg/mL.
